{
  "source": "patent US20170304177A1",
  "about": "“USE OF ISOSORBIDE ESTER AND N-ACYLATED AMINO ACID DERIVATIVES AS ANTI-AGEING AGENT FOR THE HUMAN SKIN” (SOCIETE D'EXPLOITATION DE PRODUITS POUR LES INDUSTRIES …, priority 2014, published 2017)",
  "system": "Normal human fibroblasts",
  "experiment": "In vitro migration of normal human fibroblasts (Oris migration plates, mitomycin C pretreatment, 40 h incubation, Calcein AM labelling)",
  "assay_type": "cell-based",
  "settings": "for (Dmigr) mean migration distance of the cells: 40 h, mean ± SD of quadruplicates; for [(Dmigr) − (Dmigr)control]/(Dmigr)control, percentage of migratory effect relative to the control: vs FCS culture control",
  "from_the_text": "The fibroblast migration test is a test commonly used in the cosmetics and pharmaceutical sector and is especially described in the international patent application published under the number WO 2010/056908 A1. It allows in vitro reproduction of the phenomenon of fibroblast migration; a decrease in the migratory capacities of the fibroblasts being reported as associated with aging of the skin (1) (4).\nNormal human fibroblasts at the R5 passage were amplified in a T75 culture flask and then inoculated at 25 000 cells/well in specific culture plates. These plates are dedicated to migration (Oris™ from Platypus), integrating a central zone without initial deposition of cells (stoppers). After 96 hours of plate amplification and 2 hours before the treatment, all the wells were treated with mitomycin C (2 hours at 10 μg/ml), so as to stop the cell proliferation, and thus to observe only the migration phenomenon. The stoppers were removed, and the references, the products or standard medium for fibroblasts containing 2% fetal calf serum (FCS) were applied to the cells under 100 μl, and then incubated for 40 hours at 37° C. under 5% CO2. Each condition was performed in quadruplicate.\nOn conclusion of the incubation, the cells were labeled with Calcein AM (5 μM, 20 minutes at 37° C.), so as to visualize the viable cells by fluorescence (revelation of the cytoplasm). Photos were taken, after having inserted a black screen under the culture plates, so as to visualize only the zone where the cells were not deposited. Thus, only the cells which had migrated were photographed (×4 objective lens; with a ×0.7 reducer on the camera adapter). The mean migration distance of the cells (Dmigr) was measured with NIS-Elements-BR 3.0 (4 cells). The means and standard deviations of the distances were calculated on the quadruplicates. The percentages of migratory effect relative to the control, and also the statistics (Student test) were also calculated.",
  "data": [
    {"substance": "Epidermal Growth Factor (EGF)", "values": [
      {"measurement": "(Dmigr) mean migration distance of the cells", "setting": "EGF 10 ng/ml", "value": "203 ± 20", "unit": "μm"},
      {"measurement": "[(Dmigr) − (Dmigr)control]/(Dmigr)control, percentage of migratory effect relative to the control", "setting": "EGF 10 ng/ml", "value": "+21%"},
      {"measurement": "(Dmigr) mean migration distance of the cells", "setting": "EGF 50 ng/ml", "value": "212 ± 8", "unit": "μm"},
      {"measurement": "[(Dmigr) − (Dmigr)control]/(Dmigr)control, percentage of migratory effect relative to the control", "setting": "EGF 50 ng/ml", "value": "+26%"},
      {"measurement": "Effect on migration distance of normal human fibroblasts (in words)", "setting": "summary statement on Table 1, EGF at 10 and 50 ng/ml, compositions at 5 and 10 μg/ml", "value": "increase in the migration distance"}
    ]}
  ]
}
